Source: US12122761B2, “2-azaspiro[3.4]octane derivatives as M4 agonists” (NOVARTIS AG, priority 2019, dated 2024)

Tests used:
[1] = biological target: T1, human cloned CHRM2 receptor (M2_CHO cells) (Homo sapiens, UniProt P08172); assay: CHRM2 Ca++ Flux Assay (agonist mode, FDSS 7000EX); type: cell-based; settings: for M2 FDSS PA: Percent Activity measured to EC100 of Carbachol
T1 construct: expressed in transfected cells; host or cells: CHO-K1
T1 sequence (P08172 1-466): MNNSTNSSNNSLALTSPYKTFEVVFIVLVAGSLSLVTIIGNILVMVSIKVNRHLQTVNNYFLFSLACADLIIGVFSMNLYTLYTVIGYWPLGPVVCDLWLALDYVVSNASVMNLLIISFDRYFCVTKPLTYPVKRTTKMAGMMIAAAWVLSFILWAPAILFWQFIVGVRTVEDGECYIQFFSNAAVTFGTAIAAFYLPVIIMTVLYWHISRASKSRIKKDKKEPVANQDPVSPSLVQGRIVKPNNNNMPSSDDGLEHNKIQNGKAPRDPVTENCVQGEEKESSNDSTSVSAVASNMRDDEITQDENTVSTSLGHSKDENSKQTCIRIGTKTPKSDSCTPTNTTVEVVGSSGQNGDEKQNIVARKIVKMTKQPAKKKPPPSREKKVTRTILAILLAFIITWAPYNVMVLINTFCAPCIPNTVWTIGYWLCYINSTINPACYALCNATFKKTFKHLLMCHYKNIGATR
Protocol: (§1) The above examples were characterized by measuring the intracellular mobilization of Ca++ ions caused by signaling events mediated by the receptor. The Intra-cellular Calcium flux levels were captured by the highly sensitive Ca++ indicator, Calcium Assay Kit (BD Biosciences, Catalog Number 640178). The fluorescent activity from all receptors were monitored by the fluorescent imager, FDSS 7000EX (Hamamatsu) over a span of 3 minutes.
(§2) CHO-K1 cells stably expressing the human cloned CHRM2 receptor (M2_CHO cells) were grown and maintained in a monolayer culture with F12/HAM (Life Technologies) supplemented with 10% Fetal Bovine Serum, 1× Pen-Strep, and 0.4 mg/mL Geneticin in a humidified atmosphere (5% CO2) at 37° C. The cultures were grown to 80-9 0% confluency in T150 flasks (Corning) and washed with 1×DPBS and lifted with 0.05% Trypsin (Life Technologies). The cells were then spun (1K rpm, 3 minutes) and frozen using Recovery Cell Culture Freezing Media (Gibco Technologies). Cells were stored in liquid nitrogen and thawed a day before the assay.
Prior to the day of the assay, stable M2 CHO cells were thawed and plated on Greiner 384 well TC treated plate at a density of 12K cells/well and kept overnight in a humidified atmosphere (5% CO2) at 37° C. The following day, the cells were loaded with Ca^++ dye (BD Biosciences) using Loading Buffer (HBSS +Ca/+Mg, 20 mM HEPES, 2.5 mM Probenecid) and placed back in cell incubator for a minimum of 1 hour and maximum of 2 hours. After incubation, the dye was replaced with Assay Buffer (HBSS −Ca/−Mg, 20 mM HEPES, 2.5 mM Probenecid) supplemented with 20 μM ATP (Sigma Aldrich) and kept at room temperature for 60 minutes prior before running on cell imager. The FDSS 7000EX (Hamamatsu) was used to acquire Ca^++ traces from cells in response to compound treatment and the data was used to generate dose response curves in agonist mode. All compounds were serially diluted in DMSO then prepared in Assay Buffer for Ca^++ flux studies. The dose response curves were generated from the average of triplicate wells obtained from each data point and used a non-linear regression of four parameter dose response algorithm. The Percent Activity (PA) was measured to EC100 of Carbachol.

[2] = biological target: T2, human cloned CHRM5 receptor (M5_CHO) (Homo sapiens, UniProt P08912); assay: CHRM5 Ca++ Flux Assay (agonist mode, FDSS 7000EX); type: cell-based; settings: for M5 FDSS PA: Percent Activity measured to EC100 of Carbachol; for EC50: agonist mode, geometric mean if tested more than once, read-out: M5 FDSS EC50
T2 construct: expressed in transfected cells; host or cells: CHO (M5_CHO)
T2 sequence (P08912 1-532): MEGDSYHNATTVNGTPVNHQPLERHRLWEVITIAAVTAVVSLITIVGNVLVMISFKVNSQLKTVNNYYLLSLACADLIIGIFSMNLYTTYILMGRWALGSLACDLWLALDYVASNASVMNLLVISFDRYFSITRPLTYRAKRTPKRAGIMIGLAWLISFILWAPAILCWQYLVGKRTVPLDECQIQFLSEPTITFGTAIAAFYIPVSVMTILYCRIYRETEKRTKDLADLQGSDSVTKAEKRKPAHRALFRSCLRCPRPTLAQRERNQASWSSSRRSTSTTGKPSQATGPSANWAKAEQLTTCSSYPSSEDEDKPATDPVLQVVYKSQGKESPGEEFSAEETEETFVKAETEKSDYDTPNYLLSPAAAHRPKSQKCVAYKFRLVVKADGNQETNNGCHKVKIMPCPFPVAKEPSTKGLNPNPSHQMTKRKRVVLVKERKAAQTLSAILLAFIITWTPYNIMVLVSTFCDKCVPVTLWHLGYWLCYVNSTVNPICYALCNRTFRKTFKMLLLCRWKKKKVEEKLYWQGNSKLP
Protocol: as §1
as §2, with “CHRM3” for “CHRM2”, “(M3_CHO” for “(M2_CHO”, “assay. A similar procedure was used for cells stably expressing the human cloned CHRM5 receptor (M5_CHO).” for “assay.”
Prior to the day of the assay, stable M3_CHO or M5_CHO cells were thawed and plated on Greiner 384 well black TC treated plates at 12K cells/well in F12/DMEM supplemented with 10% FBS (Hyclone) and kept overnight in a humidified atmosphere (5% CO2) at 37° C. The next day, cells were loaded with Ca^++ dye (BD Biosciences) using Loading Buffer (HBSS +Ca/+Mg, 20 mM HEPES, 2.5 mM Probenecid) and placed back in cell incubator for a minimum of 1 hour. After incubation, the dye was replaced with Assay Buffer (HBSS −Ca/−Mg, 20 mM HEPES, 2.5 mM Probenecid) and kept at room temperature in the dark before running on cell imager. The FDSS 7000EX (Hamamatsu) was used to acquire Ca^++ traces from cells treated with 11 point dose response of compounds in triplicate in order to generate dose response curves in agonist mode. All compounds were serially diluted in DMSO then prepared in Assay Buffer for Ca^++ flux studies. The dose response curves were generated from the average of triplicate wells obtained from each data point and used a non-linear regression of four parameter dose response algorithm. The Percent Activity (PA) was measured to EC100 of Carbachol.

Structure (SMILES) | M2 FDSS PA [1] | M5 FDSS PA [2] | EC50 [2] | EC50 ([1]; agonist mode, geometric mean if tested more than once, read-out: M2 FDSS EC50)
O[C@H]1CC[C@@H](c2ccccc2C2CCN([C@@H]3CCC4(C3)CN(c3nnco3)C4)CC2)CC1 (single isomer, unassigned) [Example 2N, (1S,4s)-4-(2-(1-((R)-2-(1,3,4-oxadiazol-2-yl)-2-azaspiro[3.4]octan-6-yl)piperidin-4-yl)phenyl)cyclohexan-1-ol or (1R,4r)-4-(2-(1-((R)-2-(1,3,4-oxadiazol-2-yl)-2-azaspiro[3.4]octan-6-yl)piperidin-4-yl)phenyl)cyclohexan-1-ol] | 0% | 0% | > 25 µM | –
OC1CCC(c2ccccc2C2CCN([C@@H]3CCC4(C3)CN(c3nnco3)C4)CC2)CC1 (single isomer, unassigned) [Example 2O, (1s,4r)-4-(2-(1-((R)-2-(1,3,4-oxadiazol-2-yl)-2-azaspiro[3.4]octan-6-yl)piperidin-4-yl)phenyl)cyclohexan-1-ol or (1r,4r)-4-(2-(1-((R)-2-(1,3,4-oxadiazol-2-yl)-2-azaspiro[3.4]octan-6-yl)piperidin-4-yl)phenyl)cyclohexan-1-ol] | 28% | 0% | > 25 µM | 0.09 µM
O=C(N1CC2(CC[C@@H](N3CCC(c4ccccc4OCCC(F)(F)F)CC3)C2)C1)C1(F)CC1 (single isomer, unassigned) [Example 7AA, (R)-(1-fluorocyclopropyl)(6-(4-(2-(3,3,3-trifluoropropoxy)phenyl)piperidin-1-yl)-2-azaspiro[3.4]octan-2-yl)methanone or (S)-(1-fluorocyclopropyl)(6-(4-(2-(3,3,3-trifluoropropoxy)phenyl)piperidin-1-yl)-2-azaspiro[3.4]octan-2-yl)methanone] | 0% | 0% | > 25 µM | –
CC(C)(O)CCOc1ccccc1C1CCN([C@@H]2CCC3(C2)CN(C(=O)C2(F)CC2)C3)CC1 (single isomer, unassigned) [Example 7BB, (R)-(1-fluorocyclopropyl)(6-(4-(2-(3-hydroxy-3-methylbutoxy)phenyl)piperidin-1-yl)-2-azaspiro[3.4]octan-2-yl)methanone or (S)-(1-fluorocyclopropyl)(6-(4-(2-(3-hydroxy-3-methylbutoxy)phenyl)piperidin-1-yl)-2-azaspiro[3.4]octan-2-yl)methanone] | 0% | 0% | > 25 µM | –
COC(C)(C)CCOc1ccccc1C1CCN([C@@H]2CCC3(C2)CN(C(=O)C2(F)CC2)C3)CC1 (single isomer, unassigned) [Example 7FF, (R)-(1-fluorocyclopropyl)(6-(4-(2-(3-methoxy-3-methylbutoxy)phenyl)piperidin-1-yl)-2-azaspiro[3.4]octan-2-yl)methanone or (S)-(1-fluorocyclopropyl)(6-(4-(2-(3-methoxy-3-methylbutoxy)phenyl)piperidin-1-yl)-2-azaspiro[3.4]octan-2-yl)methanone] | 0% | 0% | > 25 µM | –
O=C(N1CC2(CC[C@@H](N3CCC(c4ccccc4OCc4ncccn4)CC3)C2)C1)C1(F)CC1 (single isomer, unassigned) [Example 7M, (R)-(1-fluorocyclopropyl)(6-(4-(2-(pyrimidin-2-ylmethoxy)phenyl)piperidin-1-yl)-2-azaspiro[3.4]octan-2-yl)methanone or (S)-(1-fluorocyclopropyl)(6-(4-(2-(pyrimidin-2-ylmethoxy)phenyl)piperidin-1-yl)-2-azaspiro[3.4]octan-2-yl)methanone] | 0% | 0% | > 25 µM | –
O=C(N1CC2(CC[C@@H](N3CCC(c4ccccc4OCCO)CC3)C2)C1)C1(F)CC1 (single isomer, unassigned) [Example 7N, (R)-(1-fluorocyclopropyl)(6-(4-(2-(2-hydroxyethoxy)phenyl)piperidin-1-yl)-2-azaspiro[3.4]octan-2-yl)methanone or (S)-(1-fluorocyclopropyl)(6-(4-(2-(2-hydroxyethoxy)phenyl)piperidin-1-yl)-2-azaspiro[3.4]octan-2-yl)methanone] | 0% | 0% | > 25 µM | –
O=C(N1CC2(CC[C@@H](N3CCC(c4ccccc4OCC4CC4)CC3)C2)C1)C1(F)CC1 (single isomer, unassigned) [Example 7O, (R)-(6-(4-(2-(cyclopropylmethoxy)phenyl)piperidin-1-yl)-2-azaspiro[3.4]octan-2-yl)(1-fluorocyclopropyl)methanone or (R)-(6-(4-(2-(cyclopropylmethoxy)phenyl)piperidin-1-yl)-2-azaspiro[3.4]octan-2-yl)(1-fluorocyclopropyl)methanone] | 0% | 0% | > 25 µM | –
O=C1CCCN1CCOc1ccccc1C1CCN([C@@H]2CCC3(C2)CN(C(=O)C2(F)CC2)C3)CC1.O=CO (single isomer, unassigned) [Example 7P, (R)-1-(2-(2-(1-(2-(1-fluorocyclopropane-1-carbonyl)-2-azaspiro[3.4]octan-6-yl)piperidin-4-yl)phenoxy)ethyl)pyrrolidin-2-one formate salt or (S)-1-(2-(2-(1-(2-(1-fluorocyclopropane-1-carbonyl)-2-azaspiro[3.4]octan-6-yl)piperidin-4-yl)phenoxy)ethyl)pyrrolidin-2-one formate salt] | 0% | 0% | > 25 µM | –
